Experimental data from PMC9654711, “Neuroprotective Action of Coumarin Derivatives through Activation of TRKB-CREB-BDNF Pathway and Reduction of Caspase Activity in Neuronal Cells Expressing Pro-Aggregated Tau Protein” (International Journal of Molecular Sciences, 2022).

Columns and labels:
Type in all cases: cell-based, human
CREB = test: Immunoblot of CREB; details: 10 µM; induced untreated 83%
Method: (§1) ∆K280 tauRD-DsRed SH-SY5Y cells in 6-well plates (5 × 10^5/well) were treated with retinoic acid (10 µM) on day 1, followed by LMDS-1 or -2 (10 µM) and doxycycline (2 µg/mL) addition on day 2 as described. ERK inhibitor U0126 or PI3K inhibitor wortmannin (10 μM) (LC Laboratories, Woburn, MA, USA) was added on day 6. On day 8, the cells were collected for BDNF, BCL2, BAX and total/phosphorylated TRKB, ERK, AKT, CREB protein analyses as described.
(§2) ∆K280 tauRD-DsRed SH-SY5Y cells were lysed in buffer containing 50 mM Tris-HCl (pH 8.0), 150 mM NaCl, 1 mM EDTA (pH 8.0), 1 mM EGTA (pH 8.0), 0.1% SDS, 0.5% sodium deoxycholate, 1% Triton X-100 and protease (Sigma-Aldrich)/phosphatase (Roche, Basel, Switzerland) inhibitor cocktails. After two sonications with an interval of 30 min on ice, cell lysates were collected by centrifugation at 14,000× g for 30 min at 4 °C. Protein concentrations were determined using a Bradford assay (Bio-Rad, Hercules, CA, USA). Protein samples (25 µg) were separated by 10–12% SDS-PAGE and transferred to polyvinylidene difluoride (PVDF) membranes (Sigma-Aldrich). […] After three washes with TBST, the immune complexes were detected using horseradish peroxidase-conjugated goat anti-mouse or goat anti-rabbit secondary IgG antibody (1:5000, GeneTex, Irvine, CA, USA) and enhanced chemiluminescence substrates luminol and peroxide (Millipore). […]

p-AKT (S473) = test: Immunoblot of p-AKT (S473)
Method: as §1
(§3) ∆K280 tauRD-DsRed SH-SY5Y cells were lysed in buffer containing 50 mM Tris-HCl (pH 8.0), 150 mM NaCl, 1 mM EDTA (pH 8.0), 1 mM EGTA (pH 8.0), 0.1% SDS, 0.5% sodium deoxycholate, 1% Triton X-100 and protease (Sigma-Aldrich)/phosphatase (Roche, Basel, Switzerland) inhibitor cocktails. After two sonications with an interval of 30 min on ice, cell lysates were collected by centrifugation at 14,000× g for 30 min at 4 °C. Protein concentrations were determined using a Bradford assay (Bio-Rad, Hercules, CA, USA). Protein samples (25 µg) were separated by 10–12% SDS-PAGE and transferred to polyvinylidene difluoride (PVDF) membranes (Sigma-Aldrich). After blocking for 2 h with 10% skimmed milk or 5% BSA in 0.1% Tween 20 in Tris-buffered saline (TBST), the membrane was incubated with primary antibody against BDNF (1:500; Santa Cruz, Santa Cruz, CA, USA), BCL2 (1:500; BioVision), BAX (1:500; BioVision), TRKB (1:1000; Cell Signaling, Danvers, MA, USA), p-TRKB (Y516) (1:1000; Cell Signaling), p-TRKB (Y817) (1:1000; Millipore, Billerica, MA, USA), ERK (1:1000; Cell Signaling), p-ERK (T202/Y204) (1:500; Cell Signaling), AKT (1:1000; Cell Signaling), p-AKT (S473) (1:1000; Cell Signaling), CREB (1:1000; Santa Cruz), p-CREB (S133) (1:1000; Millipore), JNK (1:1000; Cell Signaling), p-JNK (T183/Y185) (1:1000; Cell Signaling) or loading control glyceraldehyde-3-phosphate dehydrogenase (GAPDH) (1:1000; MDBio, Taipei, Taiwan). After three washes with TBST, the immune complexes were detected using horseradish peroxidase-conjugated goat anti-mouse or goat anti-rabbit secondary IgG antibody (1:5000, GeneTex, Irvine, CA, USA) and enhanced chemiluminescence substrates luminol and peroxide (Millipore). The primary and secondary antibodies used were diluted with TBST. The chemiluminescent detection was performed on ImageQuant™ LAS 4000mini (GE Healthcare).

p-ERK (T202/Y204) = test: Immunoblot of p-ERK (T202/Y204)
Method: as §1, §3

BCL2 = test: Immunoblot of BCL2; details: 10 µM; induced untreated 73%
Method: as §1, §2

p-TRKB (Y516 and Y817) = test: Immunoblot of p-TRKB (Y516 and Y817); details: for p-TRKB Y516 level / p-TRKB Y817 level: 10 µM; for p-TRKB Y516 level: induced untreated 67%; for p-TRKB Y817 level: induced untreated 74%; for p-TRKB (Y516/Y817) level: BDNF 100 ng/mL, LMDS-1/2 10 μM, induced untreated 77–83%, Figure 6B
Method: as §1, §3

p-JNK (T183/Y185) = test: Immunoblot of p-JNK (T183/Y185); details: 10 µM; versus 107% untreated; p > 0.05
Method: as §2

[1] = tested on: ΔK280 tauRD-DsRed SH-SY5Y folding reporter cells; test: High-content analysis of ΔK280 tauRD-DsRed fluorescence and cell number (folding reporter); details: BDNF at 100 ng/mL, LMDS-1/2 at 10 μM; untreated = 100%; Figure 6A
Method: On day 1, ∆K280 tauRD-DsRed SH-SY5Y cells were seeded in a 96-well plate (3 × 10^4/well), with retinoic acid (10 µM; Sigma-Aldrich) added to induce neuronal differentiation. […] […] For ROS measurement, dichloro-dihydro-fluorescein diacetate (DCFH-DA, 10 µM; Invitrogen, Carlsbad, CA, USA) was added to the cells on day 8 and incubated at 37 °C for 30 min.

p-CREB (S133) = test: Immunoblot of p-CREB (S133)
Method: as §1, §3

m-BDNF (13 kDa) = test: Immunoblot of m-BDNF; details: 10 µM; induced untreated 69%
Method: as §1, §2

[2] = 10 µM, induced untreated 78%, Figure 5C
[3] = BDNF 100 ng/mL, LMDS-1/2 10 μM, induced untreated 72%, Figure 6B

Row | SMILES | CREB level (CREB) | p-AKT level (p-AKT (S473); 10 µM plus wortmannin 10 μM) | p-AKT level (p-AKT (S473); 10 µM, induced untreated 72%) | p-ERK level (p-ERK (T202/Y204); 10 µM plus U0126 10 μM) | p-ERK level (p-ERK (T202/Y204); 10 µM, induced untreated 76%) | BCL2 level (BCL2) | p-TRKB Y516 level (p-TRKB (Y516 and Y817)) | p-TRKB Y817 level (p-TRKB (Y516 and Y817)) | p-TRKB (Y516/Y817) level (p-TRKB (Y516 and Y817)) | p-JNK (T183/Y185) expression (p-JNK (T183/Y185)) | DsRed fluorescence intensity [1] | p-CREB level (p-CREB (S133); [2]) | p-CREB level (p-CREB (S133); [3]) | m-BDNF level (m-BDNF (13 kDa))
1 | CCOc1ccc2cc(C(=O)c3ccccc3)c(=O)oc2c1 [LMDS-1] | 98–101% | 62–64% | 96–100% | 65–66% | 101–102% | 111–114% | 92–93% | 103–105% | 96–104% | 93–108% | 111–112% | 105–108% | 90–95% | 97–102%
2 | O=C(c1ccccc1)c1cc2ccc(O)cc2oc1=O [LMDS-2] | 98–101% | 62–64% | 96–100% | 65–66% | 101–102% | 111–114% | 92–93% | 103–105% | 96–104% | 93–108% | 111–112% | 105–108% | 90–95% | 97–102%
